Assay results taken from BindingDB's records for doi:10.1016/j.bmc.2012.05.002 (Seoul National University, 2012).

Molecular target: T1, Sortase family protein (Staphylococcus aureus, UniProt Q9S446)
T1 sequence (Q9S446 whole entry): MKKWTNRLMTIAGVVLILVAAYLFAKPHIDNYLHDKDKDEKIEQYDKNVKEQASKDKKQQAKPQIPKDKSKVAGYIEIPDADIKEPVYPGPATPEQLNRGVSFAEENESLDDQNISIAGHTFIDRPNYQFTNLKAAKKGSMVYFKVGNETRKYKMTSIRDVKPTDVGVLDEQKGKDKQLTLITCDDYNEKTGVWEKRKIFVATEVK
Test: Inhibition of Staphylococcus aureus ATCC 6538p recombinant SrtA

SMILES: O=C(O)c1cc[c]([Hg][OH])cc1
- IC50: 112 µM
